The values below are quoted from earlier work in patent US20040072789A1, “Veterinary composition for the topical treatment of traumatized or inflamed skin” (priority 2000, published 2004).

This series concerns fungal infections of the skin.

`COC1=CC(=O)C[C@@H](C)[C@]12Oc1c(Cl)c(OC)cc(OC)c1C2=O` [griseofulvin]: the “effect of topical administration on fungal infections of the skin” value is “very limited effect”.
